This is an account of results in patent US11304926B2, “Application of transient receptor potential cation channel TRPV3 in developing drug for preventing or treating psoriasis” (CHINA PHARMACEUTICAL UNIVERSITY, priority 2019, dated 2022).

“Also recorded” adds a separate entry of the source.

Holding throughout (assay type): in vivo
For experiment [1], the system named is mouse psoriasis model induced by 5% IMQ. The experiment can be described thus: PASI score of mouse psoriasis model induced by imiquimod under drug intervention. To be noted: for PASI score: n = 8, mean ± SD. An excerpt:
16 C57BL/6 mice, with half male and half female were purchased from the Experimental Animal Center of Nanjing Medical University, wherein weights of the mice ranged from 18 g to 20 g. Back hair of the mice was shaved off, and then the mice were randomly divided into 2 groups (8 mice in each group) according to male and female genders. Before experiment, the mice were placed in a quiet environment kept away from strong light for 3 days to adapt to the environment, a ratio of an illuminating time to a dark time was 1:1, a room temperature was controlled at 25° C., a humidity was 55%, and the mice could eat and drink freely. 62.5 mg of 5% (0.1 g:2 g) imiquimod ointment (Zhuhai United Laboratories Co., Ltd.) was continuously applied to back skins of the mice for 6 days to induce a psoriasis-like lesion, while the same dose of vaseline ointment was given to the control group.
The clinical symptom of the mouse psoriasis model was evaluated by a PASI scoring standard from three indicators of erythema, scale and infiltration thickening. The scores ranged from 0 point to 4 points, and a total score was obtained by adding scores of the three indicators. The PASI scoring standard was as follows: 0 point referred to no symptom; 1 point referred to a mild degree; 2 points referred to a moderate degree; 3 points referred to a severe degree; and 4 points referred to an extremely severe degree. The PASI evaluation was conducted daily before the IMQ ointment was applied.
C57BL/6 mice, with half male and half female were purchased from the Experimental Animal Center of Nanjing Medical University, wherein weights of the mice ranged from 18 g to 20 g. The C57BL/6 mice were randomly divided into 4 groups (8 mice in each group). Mouse psoriasis models were established as described in Embodiment 2 (1). […]
Back skins of the mice were photographed and recorded on the 1st, 3rd and 5th days after modeling.

The test system is the same in experiment [2]. The experiment can be described thus: Histopathological examination (HE staining, epidermal thickness) of mouse psoriasis model under drug intervention. Particulars: subcutaneous injection, 5% IMQ model. An excerpt:
After sacrifice of the mice, skin tissues were collected, fixed with 10% (mass fraction) paraformaldehyde solution, embedded in paraffin, and then subjected to 3 μm slicing and HE staining. An Eclipse Ti inverted microscope (Nikon Corporation, Tokyo, Japan) was used to observe and take a photo at 400-times magnification, and NIS-element BR software (Nikon Corporation, Tokyo, Japan) was used to measure an epidermal thickness of the skin. Six fields of view were randomly selected for each section. […] It should be noted that measurement data was represented by mean±standard deviation (mean±SD), and was detected by One-Way ANOVA, wherein ** represented that P<0.01, which was relative to the vaseline group.

The test system is the same in experiment [3]. The experiment can be described thus: mRNA level of related inflammatory factors (qPCR) at lesion of mouse psoriasis model. To be noted: 5% IMQ model. The procedure:
20 mg of skin tissues were grinded to powder with liquid nitrogen, added with 0.5 mL of Trizol (Vazyme, article number: R401-01), and incubated on ice for 10 minutes. A split product was transferred to a 1.5 mL RNase-free centrifuge tube, added with 100 μL of chloroform, then shaken vigorously for 15 seconds, stood on ice for 2 minutes, and then centrifuged at 4° C. at 12000 rpm for 10 minutes. A water phase on an upper layer was absorbed into a new 1.5 mL RNase-free centrifuge tube, added with the same amount of isopropanol to precipitate RNA, and then centrifuged at 4° C. at 12000 rpm for 10 minutes. A supernatant was discarded, 500 μL of 75% ethyl alcohol prepared with DEPC water was added to wash the RNA precipitate, and then centrifuged at 4° C. at 12000 rpm for 5 minutes. A supernatant was discarded, the RNA precipitate was slightly dried, and the RNA was dissolved with 10 μL of DEPC water. 1 μL of the mixture was subjected to concentration detection by a detection instrument which was Nano-100 ultra-micro spectrophotometer (Hangzhou Aosheng Instrument Co., Ltd., article number: AS-11010). Another 500 ng of the RNA was subjected to a reverse transcription reaction, which was operated according to instructions of HiScript® II One Step RT-PCR Kit (Vazyme, article number: P611-01). A reverse transcription product was stored at −20° C. for later use. […]

Where [4] appears, read: subcutaneous injection, 5% IMQ model.

For `O=c1cc(-c2ccc(O)cc2)oc2cc(O)c(O)c(O)c12` [Scutellarein], the PASI score in experiment [1] (day 1, 0.1‰ scutellarein s.c. 100 μL twice a day + imiquimod) came to 0.0 ± 0.0; in experiment [1] (day 1, 0.2‰ scutellarein s.c. 100 μL twice a day + imiquimod), 0.0 ± 0.0; in experiment [1] (day 2, 0.1‰ scutellarein s.c. 100 μL twice a day + imiquimod), 0.5 ± 0.6; in experiment [1] (day 2, 0.2‰ scutellarein s.c. 100 μL twice a day + imiquimod), 0.0 ± 0.0; in experiment [1] (day 3, 0.1‰ scutellarein s.c. 100 μL twice a day + imiquimod) it was 1.8 ± 0.9; in experiment [1] (day 3, 0.2‰ scutellarein s.c. 100 μL twice a day + imiquimod), 0.5 ± 0.6. Further, the PASI score in experiment [1] (day 4, 0.1‰ scutellarein s.c. 100 μL twice a day + imiquimod) is recorded as 1.8 ± 1.0; in experiment [1] (day 4, 0.2‰ scutellarein s.c. 100 μL twice a day + imiquimod), 0.8 ± 0.9; in experiment [1] (day 5, 0.1‰ scutellarein s.c. 100 μL twice a day + imiquimod), 3.0 ± 0.8; in experiment [1] (day 5, 0.2‰ scutellarein s.c. 100 μL twice a day + imiquimod) it was 2.0 ± 1.2. In experiment [1] (setting [4]), the “occurrence of the lesion induced by imiquimod” value is “delay occurrence of the lesion”. Besides, in experiment [1] (setting [4]), the “psoriasis-like lesion on the back skins of the mice (appearance)” value was “could relieve the psoriasis-like lesion; also recorded: can improve the lesion; also recorded: significantly relieve”. Besides, the “epidermal thickness at lesion part” value in experiment [2] is reported as “significantly reduce”. Also, the “pathological changes of the skin induced by imiquimod” value in experiment [2] is listed as “could improve the above pathological changes”. Further, the “transcription (mRNA level) of the related inflammatory factors” value in experiment [3] is listed as “obviously reduce”.
